Experiments:
[1] = tested on: HT29 cells expressing RhoA WT; assay: Wound healing assay on HT29 cells expressing RhoA WT; assay type: cell-based, human; conditions: 48 h
Protocol: For wound healing assay, HT29 cells were seeded in 90% confluency, a wound was scratched using a P-20 tip the next day. Cell debris was washed with PBS then aspirated. Then, complete DMEM medium with CL16 or Rhosin with corresponding concentration was added to the cells. Wound closure was recorded every 24 hours under light microscope with 10× objective and measurement of wound area was made by ImageJ.
The effects of CL16 in HT29 cells expressing RhoA WT protein and HT29 cells with RhoA C16 Å knock-in by CRISPR-Cas9 were investigated, respectively, to validate the molecular mechanism of RhoA inhibition and anti-cancer properties from CL16. […] HT29 cells expressing RhoA WT or C16 Å protein were incubated with solvent vehicle, CL16 or Rhosin in complete medium for 24 h. The cells were then washed, lysed, subjected to rhotekin pull-down and immunoblotted. […] Wound healing assay on HT29 cells expressing RhoA WT or C16 Å protein were incubated with solvent vehicle, CL16 or Rhosin in complete medium for 48 h (FIGS. 19A and 19B).

Cdc42 = Cdc42 (Homo sapiens, UniProt P60953); assay: Cdc42-GTP PAK-PBD pull-down in HT29 cells; assay type: cell-based; set-up: endogenous in cells; host or cells: HT29; conditions: HT29, complete medium 24 h
Chain of Cdc42 (P60953 whole entry): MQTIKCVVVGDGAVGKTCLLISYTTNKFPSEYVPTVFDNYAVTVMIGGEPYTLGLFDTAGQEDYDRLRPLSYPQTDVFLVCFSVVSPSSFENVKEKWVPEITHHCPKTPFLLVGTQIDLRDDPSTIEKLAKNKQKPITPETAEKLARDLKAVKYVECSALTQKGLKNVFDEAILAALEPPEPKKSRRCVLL
Source text: The procedure is similar to that for RhoA-GTP assay, except that Rac1-GTP and Cdc42-GTP in CRC cells were first enriched by Rac1 Pull-Down Activation Assay Biochem Kit (Cytoskeleton #BK035) instead of using the RhoA kit. The enriched Rac1-GTP and Cdc42-GTP were then immunoblotted by Rac1/2/3 antibody (CST #2465) and Cdc42 antibody (CST #2462) respectively.
GTP loading onto RhoA is critical for the protein activation and mediating downstream signals. In view of the inhibitions of GDP-to-GTP exchange of RhoA by CL16 in vitro as discussed above, effects of CL16 on RhoA biology in colorectal cancer cells were examined. In the serum starvation-re-stimulation experiment, HCT116 cells were grown in serum-free medium with CL16, Rhosin or solvent control for 24 h, followed by stimulation with 10% FBS for 10 min. The cells were then lysed and the RhoA activity was assayed by the level of RhoA-GTP, which is the active form of RhoA. […] HT29 cells were incubated with solvent vehicle, CL16 or Rhosin in complete medium for 24 h. The cells were then washed, lysed and subjected to rhotekin pull-down for blotting RhoA-GTP, or PAK-PBD pull-down for blotting Rac1-GTP and Cdc42-GTP. Confocal fluorescence images from HCT116 and HT29 cells expressing FRET RhoA-biosensor in the serum starvation-restimulation experiment were taken.

HCT116 cells [2] = assay: F-actin staining (Alexa Fluor 488-Phalloidin), serum re-stimulation; assay type: cell-based, human; conditions: HCT116, 24 h, 10% FBS re-stimulation 10 min
Protocol: To further validate the inhibitory effects of CL16 on RhoA, HCT116 and HT29 cells were transfected with a FRET-RhoA biosensor, where cells with elevated RhoA activity would show a higher FRET/mTFP1. Specifically, HCT116 cells transfected with FRET-RhoA biosensor were treated with CL16 or solvent in serum-free medium for 24 h, washed with PBS, re-stimulated with 10% FBS for 10 min, washed, and then imaged in HBSS by confocal fluorescence microscopy. […] In addition, HCT116 cells were serum-starved and treated with CL16 or Rhosin for 24 h, followed by 10% FBS re-stimulation for 10 min. The cells were then washed and fixed by 4% paraformaldehyde, washed with PBS and stained with Alexa Fluor 488-Phalloidin in PBS (1:20, v/v) at room temperature for 15 min. The cells were washed with PBS, incubated with Hoechst (8.2 μM) in PBS for 15 min, washed and then imaged in PBS by confocal fluorescence microscopy. […] Since RhoA regulates cytoskeletal dynamics and RhoA activation can induce the formation of contractile F-actin, the reduction of F-actin fibers by CL16 treatment supports its inhibitory roles on RhoA signaling.

HCT116 cells [3] = assay: Gel ABPP in HCT116 cells with CL16-alkyne; assay type: cell-based, human
Protocol: HCT116 and SW620 cells were plated onto 6-well plate at a density of 5×10^5 cells per well overnight. Then the cells were treated with CL16 at indicated concentration for 2 hours, followed by treatment with CL16-alkyne (1 μM) for 2 hours. After treatment, the cells were washed with PBS and lysed by probe sonication. Cell debris were removed by centrifugation at 5,000g for 10 min at 4° C. 50 μL of normalized protein lysates (2 mg/mL) were labeled with azide-fluor 545 by copper-catalyzed azide-alkyne cycloaddition at room temperature in dark for an hour. Then, the reaction was quenched by boiling in sampling buffer and samples were subjected to SDS-PAGE to separate proteins band for measuring in-gel fluorescence. After imaging, the gel was washed with MilliQ and incubated with Coomassie Blue stain with gentle shaking.
To identify protein target and any off-targets of CL16 in CRCs, a molecular probe of CL16, CL16-alkyne (FIG. 6A), was synthesized. […] The protein bands were then visualized by their in-gel fluorescence or blotted for RhoA. […] The probe-labeled proteins were installed with rhodamine through CuAAC, and visualized by their in-gel fluorescence after SDS-PAGE. A protein band with strong fluorescence was found at −22 kDa in the sample incubated with CL16-alkyne only, in line with the molecular weight of RhoA (FIG. 6C).

In the case of `O=C(CCl)N1N=C(c2cc3ccccc3o2)CC1c1ccco1` (centres unmarked) [CL16], the cell migration [1] is reported as “decrease in cell migration”, the “Cdc42 activity (Cdc42-GTP)” value (Cdc42) is reported as “no significant changes” and the “concentration from which reduction of F-actin fibers was observed” value (HCT116 cells [2]) is reported as at least 5 µM. The “fluorescent protein band at 22 kDa labeled by CL16-alkyne” value (HCT116 cells [3]; CL16 pre-treatment at 10 μM) was “complete abolishment of the protein band” and the off-target binding (HCT116 cells [3]; HCT116 cells) was “minimal off-target binding”.
